The text below walks through data of article PMC8626775, “Anti-schistosomal activities of quinoxaline-containing compounds: From hit identification to lead optimisation” (European Journal of Medicinal Chemistry, 2021).

Like-named read-outs stand apart in the source and are kept apart here. A value given as a limit tells only on which side of the number the result lay.

In the experiment the test system is S. mansoni schistosomula. Briefly: S. mansoni schistosomula high-throughput phenotype and motility screen (Roboworm), 72 h. It counts as cell-based, Schistosoma mansoni. As to conditions: for EC50: Schistosoma mansoni; for Effect on phenotype and motility of S. mansoni schistosomula: primary tested concentrations 10 and 50 μM. How it is done: Cercariae derived from the NMRI ([…]) Puerto Rican strain (PR-1) of S. mansoni were shed from two Biomphalaria glabrata strains, the NMRI albino and pigmented outbred strains, under intensified lighting conditions (1 h of incubation at 26 °C). Cercariae were then mechanically transformed into schistosomula as previously described.
High-throughput screening (HTS) of selected compounds was conducted as previously described. Briefly, newly transformed schistosomula were distributed in a 384-well tissue culture plate (PerkinElmer, cat 6007460, seeding density of 120 parasites/well). Each compound (at a single concentration or two-fold titrations) was transferred into individual wells alongside the positive and negative controls (AUR at 10 μM final concentration in 0.625% DMSO and 0.625% DMSO, respectively). Schistosomula/compound co-cultures were then incubated at 37 °C for 72 h in a humidified atmosphere containing 5% CO2. Following the co-culture period, automatic assessment of compound-induced schistosomula motility and phenotypic changes were conducted with the high-content imaging platform Roboworm using the image analysis model previously described by Paveley et al..

The mark [1] stands for this setting: 72 h, Table 1, 72 h, two dose response titrations (0.313–10 μM), 95% CI in brackets, read-out: Activity on schistosomula (EC50, μM - 72 h) Motility.
[2] abbreviates: 72 h, Table 1, 72 h, two dose response titrations (0.313–10 μM), 95% CI in brackets, read-out: Activity on schistosomula (EC50, μM - 72 h) Phenotype.
Setting [3] is: Fig. S3, average schistosomula EC50, read-out: EC50 (Fig. S3, anti-schistosomula activity).
[4] abbreviates: 72 h, Table 2, motility, 72 h, three replicate titrations (0.313–10 μM), read-out: Activity on schistosomula (EC50, μM - 72 h) M.
[5] abbreviates: 72 h, Table 2, phenotype, 72 h, three replicate titrations (0.313–10 μM), read-out: Activity on schistosomula (EC50, μM - 72 h) P.
Where [6] appears, read: 72 h, Table S7, motility, 95% CI in brackets, read-out: Activity on schistosomula (EC50, µM - 72 h) (95% CI) M.
The mark [7] stands for this setting: 72 h, Table S7, phenotype, 95% CI in brackets, read-out: Activity on schistosomula (EC50, µM - 72 h) (95% CI) P.
Where [8] appears, read: Table 5, Series C, read-out: Anti-schistosomal activity EC50 Schistosomula (μM) Motility.
Where [9] appears, read: Table 5, Series C, read-out: Anti-schistosomal activity EC50 Schistosomula (μM) Phenotype.
Setting [10] is: Table 3, read-out: Anti-schistosomal activity EC50 (μM) Schistosomula Motility.
Setting [11] is: Table 3, read-out: Anti-schistosomal activity EC50 (μM) Schistosomula Phenotype.
The mark [12] stands for this setting: 72 h, Table 1, mean of phenotype and motility EC50, 72 h, read-out: Activity on schistosomula (EC50, μM - 72 h) Average.
The mark [13] stands for this setting: 72 h, read-out: EC50 on schistosomula (bounds and ranges given).

Turning to `FC(F)(F)c1cccc(/N=c2\[nH]c3ccccc3s\c2=N\c2cccc(C(F)(F)F)c2)c1` [Compound 4], the EC50 by setting is: under setting [1], above 50 µM; under setting [2], above 50 µM; under setting [3], above 50 µM. The “Effect on phenotype and motility of S. mansoni schistosomula” value (shortened to “Effect on phenotype and motility”) (72 h) was “did not have any effect”.

As for `COc1ccc2nc(Nc3ccccc3)c(Nc3ccccc3)nc2c1` [Compound 6], the EC50 under setting [1] was above 10 µM, the EC50 under setting [2] is above 10 µM and the EC50 under setting [3] is above 10 µM. In addition, the “Effect on phenotype and motility” value (72 h) is “weak effect”.

With `O=C(Nc1ccc2nc(Nc3ccc(Cl)c(Cl)c3)c(Nc3ccc(Cl)c(Cl)c3)nc2c1)c1cccc(C(F)(F)F)c1` [Compound 22g, N-(2,3-bis((3,4-dichlorophenyl)amino)quinoxalin-6-yl)-3-(trifluoromethyl)benzamide], the EC50 runs as follows: under setting [4], above 50 µM; under setting [5], above 50 µM; under setting [6], above 50 µM; under setting [7], above 50 µM; under setting [8], above 50 µM; under setting [9], above 50 µM.

In the case of `Cc1ccc(Nc2nc3ccccc3nc2Nc2ccc(C)cc2)cc1` [Compound 15], the EC50 is above 10 µM under setting [1], above 10 µM under setting [2] and above 10 µM under setting [3]. The “Effect on phenotype and motility” value (72 h) was “weak effect”.

In the case of `O=C(O)C=Cc1cccc(Nc2nc3ccc([N+](=O)[O-])cc3nc2Nc2cccc(C=CC(=O)O)c2)c1` [Compound 24], the EC50 by setting is: under setting [1], above 10 µM; under setting [2], above 10 µM. Moreover, the “Effect on phenotype and motility” value (72 h) is listed as “weak effect”.

With `O=C(Nc1ccc2nc(Nc3ccc(Cl)c(Cl)c3)c(Nc3ccc(Cl)c(Cl)c3)nc2c1)C1CCCCC1` [Compound 22e, N-(2,3-bis((3,4-dichlorophenyl)amino)quinoxalin-6-yl)cyclohexanecarboxamide], the EC50 by setting is: under setting [4], above 50 µM; under setting [5], above 50 µM; under setting [6], above 50 µM; under setting [7], above 50 µM; under setting [8], above 50 µM; under setting [9], above 50 µM.

`Cc1ccc2[nH]c(=Nc3ccccc3C)c(=Nc3ccccc3C)[nH]c2c1` [Compound 5]: the EC50 reads like this: under setting [1], above 10 µM; under setting [2], above 10 µM. Further, the “Effect on phenotype and motility” value (72 h) was “weak effect”.

Turning to `O=[N+]([O-])c1ccc2nc(Cl)c(Cl)nc2c1` [2,3-dichloro-6-nitroquinoxaline], the EC50 under setting [4] is above 10 µM; the EC50 under setting [5] is above 10 µM; the EC50 under setting [6] is above 10 µM; the EC50 under setting [7] was above 10 µM; the EC50 under setting [10] was above 10 µM; the EC50 under setting [11] is above 10 µM.

`OCc1cccc(N=c2[nH]c3ccccc3[nH]c2=Nc2cccc(CO)c2)c1` [Compound 7]: the EC50 is, setting by setting: under setting [1], above 10 µM; under setting [2], above 10 µM. For the same molecule, the “Effect on phenotype and motility” value (72 h) is “weak effect”.

Consider `O=[N+]([O-])c1ccc2nc(O)c(O)nc2c1` [6-nitro-2,3-dihydroxy-quinoxaline], for which the EC50 was above 50 µM under setting [4]; above 50 µM under setting [5]; above 50 µM under setting [6]; above 50 µM under setting [7]; above 50 µM under setting [10]; above 50 µM under setting [11].

For the molecule `Cc1ccc(/N=c2\[nH]c3ccccc3s\c2=N\c2ccc(C)cc2)cc1` [Compound 2], the EC50 under setting [1] was above 50 µM, the EC50 under setting [2] was above 50 µM and the 50% effective concentration (EC50) under setting [3] was above 50 µM. For the same molecule, where the note is “72 h”, the “Effect on phenotype and motility” value was “did not have any effect”.

For `Cc1ccc(Sc2nc3ccccc3nc2Sc2ccc(C)cc2)cc1` [Compound 14], the EC50 is, setting by setting: under setting [1], above 50 µM; under setting [2], above 50 µM; under setting [3], above 50 µM. The “Effect on phenotype and motility” value (72 h) is listed as “did not have any effect”.

In the case of `Cc1ccc(Nc2nc3ccccc3nc2Nc2ccc(C)c(Cl)c2)cc1Cl` [Compound 17], the “Activity on schistosomula in the primary screen at 10 μM” value (“Activity on schistosomula … at 10 μM” below) (72 h) is “retained activity”. In addition, the half-maximal effective concentration (EC50) runs as follows: under setting [1], 2.45 µM; under setting [2], 2.88 µM; under setting [12], 2.66 µM; under setting [13], 1 to 2 µM.

On to `Clc1ccc(Nc2nc3ccc(N4CCCC4)cc3nc2Nc2ccc(Cl)c(Cl)c2)cc1Cl` [Compound 22b, N^2, N^3-bis(3,4-dichlorophenyl)-6-(pyrrolidin-1-yl)quinoxaline-2,3-diamine], for which the “Activity on schistosomula in the primary screen at 50 μM” value (50 μM, 72 h) is “affected schistosomula motility, but not phenotype”. Besides, the EC50 is, setting by setting: under setting [4], above 10 µM; under setting [5], above 10 µM; under setting [6], above 10 µM; under setting [7], above 10 µM; under setting [8], above 10 µM; under setting [9], above 10 µM.

As to `COc1ccc(OC)c(Nc2nc3ccccc3nc2Nc2cc(OC)ccc2OC)c1` [Compound 8], the EC50 was above 50 µM under setting [1], above 50 µM under setting [2] and above 50 µM under setting [3]. Further, where the note is “72 h”, the “Effect on phenotype and motility” value is listed as “did not have any effect”.

As to `Fc1ccccc1Nc1nc2ccccc2nc1Nc1ccccc1F` [Compound 13], the EC50 was above 10 µM under setting [1] and above 10 µM under setting [2]. In addition, the “Effect on phenotype and motility” value (72 h) was “weak effect”.

In the case of `CCOc1ccc(Nc2nc3ccccc3nc2Nc2ccc(OCC)cc2)cc1` [Compound 9], the “Activity on schistosomula … at 10 μM” value (72 h) is reported as “retained activity”. In addition, the EC50 worked out at 4.87 µM under setting [1], 5.92 µM under setting [2] and 5.39 µM under setting [12].

With `CCOC(=O)c1ccc(Nc2nc3ccccc3nc2Nc2ccc(C(=O)OCC)cc2)cc1` [Compound 10], the “Activity on schistosomula … at 10 μM” value (72 h) is “retained activity”. Moreover, the EC50 came to 5.83 µM under setting [1], 5.12 µM under setting [2] and 5.47 µM under setting [12].

As to `Cc1cccc(Nc2nc3ccc([N+](=O)[O-])cc3nc2Nc2cccc(C)c2C)c1C` [Compound 27, N2, N3-bis(2,3-dimethylphenyl)-6-nitroquinoxaline-2,3-diamine], the EC50 under setting [4] is above 10 µM; the EC50 under setting [5] is above 10 µM; the concentration giving a half-maximal response (EC50) under setting [6] is above 10 µM; the EC50 under setting [7] is above 10 µM; the 50% effective concentration (EC50) under setting [13] was above 10 µM; the EC50 (Table 4, Series A, read-out: Anti-schistosomal activity EC50 Schistosomula (μM) Motility) is above 10 µM. For the same molecule, for the setting “Table 4, Series A, read-out: Anti-schistosomal activity EC50 Schistosomula (μM) Phenotype”, the EC50 was above 10 µM.

Turning to `c1ccc(-c2nc3ccccc3nc2-c2ccccc2)cc1` [Compound 18], the EC50 is, setting by setting: under setting [1], above 10 µM; under setting [2], above 10 µM. In addition, the “Effect on phenotype and motility” value (72 h) was “weak effect”.

As for `COc1ccc(/N=c2\[nH]c3ccccc3s\c2=N\c2ccc(OC)cc2)cc1` [Compound 3], the EC50 under setting [1] was above 50 µM, the EC50 under setting [2] is above 50 µM and the EC50 under setting [3] was above 50 µM. Further, the “Effect on phenotype and motility” value (72 h) is reported as “did not have any effect”.

With `FC(F)(F)c1cccc(Oc2nc3ccccc3nc2Oc2cccc(C(F)(F)F)c2)c1` [Compound 12], the EC50 was above 10 µM under setting [1], above 10 µM under setting [2] and above 10 µM under setting [3]. Moreover, the “Effect on phenotype and motility” value (72 h) is listed as “weak effect”.
